In US20210379094A1, “METHOD FOR REDUCING DRUG-INDUCED NEPHROTOXICITY” (Yissum Research Development Company of the Hebrew …, priority 2019, published 2021):
Where “and” joins values, the source holds several entries; their conditions need not be identical. Equal entries are not always repeated.

Assays:
Type in all cases: cell-based, human
[1] = test system: HK-2; assay: Reduction of toxicity (rescue) experiment with glucose transport inhibitors, LIVE/DEAD viability; conditions: for cell viability / cell death: cultures treated with nephrotoxic drug plus inhibitor vs drug alone
Method: (§1) Empagliflozin (5 μM) a potent SGLT2 inhibitor, phloretin (1 mM) inhibits the apicobasal shuttling of the GLUT2, phlorizin (200 μM) is a mild inhibitor of SGLT1 and SGLT2. When all three inhibitors were used together, the mix was referred to as a cocktail. All experiments were performed on a 96 well plate, in triplicates with controls with no drugs, or inhibitors alone. First, cells were incubated for 1 hour with inhibitors alone and then drugs were added with inhibitors for 24 hours for LIVE DEAD assay or 48 hours for Lipid accumulation (LipidTox Assay). Cell viability was determined using LIVE/DEAD Cytotoxicity kit (Molecular Probes, USA) according to manufacturer directions. Briefly, cultures were incubated for 30 min with 2 μM calcein AM and 4 μM ethidium homodimer-1. Live cells were positive for green fluorescence due to hydrolysis of the acetoxymethyl ester group by intracellular esterases. Dead cells were positive for red fluorescence due to ethidium homodimer-1 binding intracellular DNA, possible in […]. Cellular viability was expressed as live over dead ratio and normalized based on negative (DMSO/DDW/PBS) controls. Fluorescence micrographs were analyzed for total fluorescence using ImageJ for 9 repeats for each sample. Error bars indicate ±SEM.
(§2) After staining, plates were mounted on the fluorescent microscope for quantification. Rescue was achieved when significant percentage of live cells and/or a reduced amounts of dead cells was observed as compared with cells treated with the drug only.

[2] = test system: HK-2; assay: Reduction of toxicity (rescue) experiment with glucose transport inhibitors, lipid accumulation (LipidTox); conditions: for lipotoxicity: cultures treated with the three nephrotoxic compounds
Method: Quantification of lipid accumulation was performed using HCS LipidTOX™ Phospholipidosis and Steatosis Detection Kit (ThermoFisher). Briefly, HK-2 and RPTEC cells were incubated with different concentrations of compounds dissolved in culture medium and 1× Phospholipidosis Detection Reagent for 48 h, subsequently fixed in 4% PFA. Cells were then stained with 1× Green LipidTOX™ for neutral lipids for 45 min and counterstained with 1 μg/mL Hoechst 33258. Staining intensity was normalized to number of Hoechst 33258 positive nuclei.
as §1, §2

[3] = test system: HK-2 organoids; assay: Real-time oxygen uptake / time to onset in perfused organoid bioreactor; conditions: for Oxygen uptake drop: after 33 hours continuous perfusion, 12.5 μM Cyclosporine A, 32 μM Cisplatin, 32 mM Gentamicin
Method: Polydimethylsiloxane (PDMS) microwell inserts were sterilized with 70% EtOH and 30-min exposure to UV light prior to cell seeding. Kidney cells were trypsinized, counted, and centrifuged at 300×g for 5 min at 4° C. […] Then, 1.35 μl of Matrigel® suspension containing cells and oxygen-sensing beads was seeded in each well using […] M P10M (Gilson, UK). The inoculated microwell insert was then incubated for 30 min at 37° C. to polymerize the gel. Following polymerization, the insert was immersed in 3 ml of cell culture medium and incubated overnight at 37° C. prior to being sealed in the bioreactor housing. Bioreactors were then placed in a climate control chamber on an IX81 fluorescence microscope (Olympus, Japan). Bioreactors were continuously perfused with cell culture medium noted above supplemented with 10 mM HEPES and 1% DMSO at a flow rate of 5 μL/min. Drug induction started upon metabolic stabilization. Stabilization was assessed by daily measurements of oxygen and metabolites.
Real-time oxygen measurements were performed optically using on-chip lifetime-based luminescence quenching (LBLQ). […] Oxygen acts as a quencher, leading to a decrease in decay time and signal intensity with increasing concentration. We chose to measure decay time, rather than signal intensity, as it is not sensitive to changes in probe concentration or excitation intensity over the course of the experiment. […] To accurately measure decay time, we chose phase modulation in which sinusoidal amplitude-modulated light is shifted in phase due to oxygen quenching. […] Measurements were carried out by averaging five consecutive 4-s exposures. Measurements were taken every 15 min.
Bioreactors were perfused with different concentrations of compounds dissolved in culture medium. […] TC50 concentrations were determined using MATLAB by sigmoidal curve fitting. […] Time to onset was analyzed by MATLAB based on LPF and trend assessment.

[4] = test system: HK-2 organoids; assay: Metabolic flux analysis (glucose, lactate, glutamine, oxygen) of perfused organoids; conditions: for ATP production drop / Lipogenesis increase / glycolysis drop: 31 hours exposure to sub-toxic concentration (12.5 μM Cyclosporine A, 32 μM Cisplatin, 32 mM Gentamicin)
Method: Amperometric glucose and lactate sensors were purchased from Innovative Sensor Technology (IST, Switzerland). […] Both sensors produce H2O2 in amounts proportional to the measured metabolite, which is detected with platinum electrodes under polarized condition. […] Measurements were carried out and calibrated to sensitivity decrease by on-chip potentiostat (IST, Switzerland). Glucose uptake, oxygen uptake, and lactate production rates were measured by calculating the change in metabolite concentration between the bioreactor in- and outflow as a function of perfusion rate and cell number. Metabolic rates were calculated assuming negligible contribution to oxygen uptake by fatty acid oxidation and enzymatic activity. […] Based on these assumptions, oxidative phosphorylation flux was calculated by dividing the oxygen uptake rate by six. It was estimated that 32 ATP molecules were generated by complete oxidation of one molecule of glucose. Glycolysis flux was calculated by dividing lactate production rate by two, with maximal rate defined by glucose uptake rate minus the oxidative phosphorylation flux. ATP production in glycolysis was estimated to be two molecules per molecule of glucose. It was assumed that any glucose left over was directed toward lipogenesis, because the contribution of pentose phosphate pathway in non-proliferating cells is minor. […] ATP production in glutaminolysis was estimated to be three molecules per molecule of lactate generated.

[5] = test system: HK-2 proximal tubule cells; assay: Glucose accumulation assay (2-NDBG); conditions: for 2-NBDG fluorescence: concentrations a thousand-fold under the threshold of cellular damage
Method: To monitor glucose uptake in cells, a fluorescent analog of glucose 2-(N-(7-Nitrobenz-2-oxa-1,3-diazol-4-yl) Amino)-2-Deoxyglucose (2-NDBG), (Invitrogen, CA, USA) was used. After overnight drug exposure, the medium was removed and replaced with Dulbecco's Phosphate Buffered Saline (Sigma, USA) with 17 mM and 6 mM of 2-NDBG to match glucose concentration of HK-2 and RPTEC culture medium respectively, incubated for 1 hour at 37° C., 5% CO2 before imaging. 2-NDBG is taken up in mammalian cells by GLUT-2, if its activity or shuttling is disturbed, 2-NDBG will accumulate in the cells, showing higher green intensity.

[6] = organoids under continuous perfusion

In the case of `OC[C@H]1O[C@@H](c2ccc(Cl)c(Cc3ccc(O[C@H]4CCOC4)cc3)c2)[C@H](O)[C@@H](O)[C@@H]1O` [Empagliflozin], the “cell viability / cell death” value [1] is reported as “restores cell viability” and the “lipotoxicity” value [2] is reported as “significantly alleviates lipotoxicity”.
In the case of `N.N.[Cl][Pt][Cl]` [Cisplatin], the “Time to onset (TTO) of response” value ([3]; HK-2 organoids, increasing concentrations, dose-dependent decrease) is reported as 13 to 22 h, the Oxygen uptake drop [3] is reported as 36% and the “time of induced damage following exposure” value [3, 6] is reported as “at least 14 hours”. For the same molecule, the ATP production drop [4] was 53%, the Lipogenesis increase [4] was 57.6% and 57% and the glycolysis drop [4] was 98.4% and 98%. The “Overall glutamine uptake” value ([4]; during exposure) was “remained constant” and the “2-NBDG fluorescence” value [5] was “doubles”.
Gentamicin was tested, and the Oxygen uptake drop [3] was 10%, the “oxygen response upon perfusion” value [3, 6] was “acute jump in oxygen uptake within an hour after exposure” and the “viability at sub-toxic concentration” value ([3]; sub-toxic concentration used for flux analysis) was greater than 95%. For the same molecule, the “lactate over glucose ratio drop” value ([4]; 32 mM Gentamicin, after 10 h exposure) was 85%, the ATP production drop [4] was 29% and the Lipogenesis increase [4] was 438%. The glycolysis drop [4] was 65%, the glucose uptake increase ([4]; after 31 hours) was “+196%” and the lactate release decrease ([4]; after 31 hours) was −65.2%. The Glutamine uptake change ([4]; at 31 hours) was “+14.1%”, the Glutamine uptake change ([4]; at approximately 16 hours) was “+76%” and the “shift of organoid metabolism” value ([4]; bioreactor studies) was “significantly shift proximal tubular organoid metabolism towards lipogenesis”. The “Relative 2-NDBG accumulation, increase in glucose content” value ([5]; HK2 cells, sub-toxic 15 h exposure) was 2 fold and the “2-NBDG fluorescence” value [5] was “doubles”.
With `O=C(CCc1ccc(O)cc1)c1c(O)cc(O)cc1O[C@@H]1O[C@H](CO)[C@@H](O)[C@H](O)[C@H]1O` [Phlorizin] the “increase in cell viability” value ([1]; CsA treated cultures, compared to cells treated with CsA alone) was 2 fold, the “cell viability / cell death” value [1] was “restores cell viability” and the “decrease in phospholipids content” value ([2]; CsA treated cultures, compared to CsA alone) was 2 fold. For the same molecule, the “lipotoxicity” value [2] was “significantly alleviates lipotoxicity”.
With `O=C(CCc1ccc(O)cc1)c1c(O)cc(O)cc1O` [Phloretin] the “cell viability / cell death” value [1] was “restores cell viability” and the “lipotoxicity” value [2] was “significantly alleviates lipotoxicity”.
